According to patent publication US20250304571A1, “BIOLOGICALLY ACTIVE COMPOUNDS AND METHODS THEREOF” (Suzhou Keen Therapeutics Co., Ltd., priority 2022, published 2025):

Tested on: 786-O (renal cell carcinoma) cells
Test: Cell viability (CellTiter Glo) assay, inhibition of 786-O cell proliferation
Type: cell-based
Conditions: Homo sapiens, 786-0, 72 h, read-out: IC50, inhibition of 786-O cell proliferation

Row | SMILES | IC50
1 | CC(C)N(CC(F)(F)F)C(=N)OCc1nc(N)nc(Nc2ccc(Oc3ccccc3)cc2)n1 [Compound F8] | < 100 nM
2 | N=C(OCc1nc(N)nc(Nc2ccc(Oc3ccccc3)cc2)n1)N(C1CCCCC1)C1CC1 [Compound F14] | < 100 nM
3 | CN(C(=N)OCc1nc(N)nc(Nc2ccc(Oc3ccccc3)cc2)n1)c1ccccc1 [Compound F29] | < 100 nM
4 | N=C(OCc1nc(N)nc(Nc2ccc(Oc3ccccc3)cc2)n1)N1CCCCO1 [Compound F43] | 100 to 500 nM

Same assay, conditions: Homo sapiens, 786-0; 786-O cells, 72 hours, CellTiter Glo; read-out: IC50, inhibition of 786-O cell proliferation

Row | IC50 | SMILES
5 | 100 to 500 nM | CS(=O)(=O)c1ccc(N2C(=O)C3(CCCC3)c3c(N)nc(COC(=N)N4CCC[C@@H]4C(F)(F)F)nc32)cc1 [Compound E213]
6 | 100 to 500 nM | CNc1nc(COC(=N)N2CCC[C@@H]2C(F)(F)F)nc2c1C1(CCCC1)C(=O)N2c1cnc(C2CC2)nc1 [Compound E215]
7 | 100 to 500 nM | CNc1nc(COC(=N)N2CCOCC2C(F)(F)F)nc2c1C(C)(C)C(=O)N2c1cnc(N2CCC(F)(F)C2)nc1 (centres unmarked) [Compound E216]
8 | 500 to 5000 nM | CNc1nc(COC(=N)N2CCOCC2C(F)(F)F)nc2c1C(C)(C)C(=O)N2c1cnc(N2C[C@@H](C)O[C@@H](C)C2)nc1 (some centres unmarked) [Compound E218]
9 | 100 to 500 nM | C[C@@H]1CN(c2ncc(N3C(=O)C(C)(C)c4c(NC5CCC5)nc(COC(=N)N5CCOCC5C(F)(F)F)nc43)cn2)C[C@H](C)O1 (some centres unmarked) [Compound E219]
10 | > 5000 nM | Cn1c(OCc2nc(N)nc(Nc3ccc(Oc4ccccc4)cc3)n2)nc(Br)c1Br [Compound F2]
11 | < 100 nM | [2H]C([2H])(OC(=N)N1CCC(F)(F)CC1)c1nc(N)nc(Nc2ccc(Oc3ccccc3)cc2)n1 [Compound F10]
12 | 100 to 500 nM | CC1(NC(=N)OCc2nc(N)nc(Nc3ccc(Oc4ccccc4)cc3)n2)CC1 [Compound F28]
13 | 500 to 5000 nM | CCN(CC(F)(F)F)C(=N)OCc1cc(Nc2ccc(Oc3ccccc3)cc2)ncn1 [Compound F39]
14 | 100 to 500 nM | CCN(CC(F)(F)F)C(=N)OCc1nccc(Nc2ccc(Oc3ccccc3)cc2)n1 [Compound F40]
15 | < 100 nM | CCN(C(=N)OCc1nc(N)nc(Nc2ccc(Oc3ccccc3)cc2)n1)c1ccccn1 [Compound F42]
16 | < 100 nM | CCN(CC(F)(F)F)C(=N)OCc1nc(N)nc(Nc2ccc(Oc3ccccc3)cc2)n1 [Compound F45]
17 | < 100 nM | C#CCOc1cccc(Oc2ccc(Nc3nc(N)nc(COC(=N)N4CCCCC4C(F)(F)F)n3)cc2)c1 (centres unmarked) [Compound F46]
18 | < 100 nM | C#CCOc1cccc(Oc2ccc(Nc3nc(N)nc(COC(=N)N(CC)c4ccccn4)n3)cc2)c1 [Compound F47]
19 | 500 to 5000 nM | CCN(CC(F)(F)F)C(=N)OCc1nccc(Nc2ccc(N3CCOCC3)nc2)n1 [Compound F49]

More lines, now with the values behind:

Row | SMILES | IC50
20 | C[C@@H]1CN(c2ccc(N3C(=O)C4(CCCC4)c4c(N)nc(COC(=N)N5CCC[C@@H]5C(F)(F)F)nc43)cc2F)C[C@H](C)O1 [Compound E214] | < 100 nM
21 | CNc1nc(COC(=N)N2CCC[C@@H]2C(F)(F)F)nc2c1C(C)(C)C(=O)N2c1cnc(N2C[C@@H](C)O[C@@H](C)C2)nc1 [Compound E217] | < 100 nM
22 | CC1(C)C(=O)N(c2cnc(N3CCC(F)(F)C3)nc2)c2nc(COC(=N)N3CCOCC3C(F)(F)F)nc(NC3CCC3)c21 (centres unmarked) [Compound E220] | 100 to 500 nM
23 | CC1(NC(=N)OCc2nc(N)nc(Nc3ccc(Oc4ccccc4)cc3)n2)CCCCC1 [Compound F15] | 100 to 500 nM
24 | CCN(CC)C(=N)OCc1nc(N)nc(Nc2ccc(Oc3ccccc3)cc2)n1 [Compound F17] | 100 to 500 nM
25 | CCN(C(=N)OCc1nc(N)nc(Nc2ccc(Oc3ccccc3)cc2)n1)c1ccncc1 [Compound F41] | < 100 nM
26 | N=C(OCc1nc(N)nc(Nc2ccc(Oc3ccccc3)cc2)n1)N1CCCO1 [Compound F44] | 100 to 500 nM
27 | CCN(CC(F)(F)F)C(=N)OCc1cc(Nc2ccc(Oc3ccccc3)cc2)cnn1 [Compound F48] | 500 to 5000 nM
28 | CCN(CC(F)(F)F)C(=N)OCc1ncc(C#N)c(Nc2ccc(Oc3ccccc3)cc2)n1 [Compound F50] | 500 to 5000 nM
29 | N=C(OCc1nc(N)nc(Nc2ccc(Oc3ccccc3)cc2)n1)N(CC(F)(F)F)C1CCOCC1 [Compound F51] | < 100 nM
